For series [1], the system named is NCI-H446 SCLC tumor cells. The series can be described thus: NCI-H446 CDX model, tumor growth inhibition. The series is classed as in vivo, Balb/c nude mice. Conditions: 16 day cycle; for TGI effects compared to vehicle: monotherapy, Compound of formula (I) 30 mg/kg QD 3 consecutive days a week P.O., carboplatin 50 mg/kg QW I.V. The procedure:
(§1) Female Balb/c nude mice were inoculated subcutaneously with 5×10^6 NCI-H446 SCLC tumor cells. Animals were randomized when tumor volume reached approximately 100-150 mm^3. Animals were treated with vehicle (0.5% methycellulose, 1% Tween 80 P.O. and saline I.V.), Compound of formula (I) formulated as a suspension in 0.5% methycellulose and 1% Tween 80 (30 mg/kg QD, 3 consecutive days a week, P.O.), or Carboplatin (50 mg/kg QW, I.V.) administered over a 16 day cycle, either alone or in combination (5 animals per group). In combination arms, Compound of formula (I) was administered 2 hours prior to chemotherapy. Tumor growth was monitored twice weekly by caliper measurement and tumor volume calculated using the equation V=(L×W×W)/2, where V is tumor volume, L is tumor length (the longest tumor dimension) and W is tumor width (the longest tumor dimension perpendicular to L). During routine monitoring, the animals were checked for any effects of tumor growth and treatments on behavior such as mobility, food and water consumption, body weight gain/loss 3 times a week, eye/hair matting and any other abnormalities. Mortality and observed clinical signs were recorded for individual animals.

The test system of the next series is SCLC. Conditions: SCLC patients; in combination with olaparib, or with carboplatin in platinum-refractory SCLC (BALTIC study, Arm B, NCT02937818); preliminary data; cited from earlier work.
Another series deals with NCI-H446 tumor cells. The series is described as follows: In vitro synergy, CellTiter-Glo viability assay with Bliss synergy method. Conditions: in combination with carboplatin, 72 hours, 9 doses, 0-10 uM and carboplatin 0-300 uM, Bliss score >5 demonstrates synergy. Format: cell-based. As to the method: NCI-H446 tumor cells were plated at a density of 5000 cells/90 ul in 96 well plates. Cells were treated with Compound of formula (I) and/or carboplatin, either alone or in combination with 9 different doses (3-fold serial dilutions starting at 10 uM for Compound of formula (I) and 300 uM for carboplatin) for 72 hours.
(In general: ATP-based viability assays read luminescence as a measure of living cells.)

Series [2] has as its system NCI-H1048 SCLC tumor cells. The series can be described thus: NCI-H1048 cell line-derived xenograft (CDX) model, tumor growth inhibition. The series is classed as in vivo, Balb/c nude mice. The procedure:
(§2) Female Balb/c nude mice were inoculated subcutaneously with 5×10^6 NCI-H1048 SCLC tumor cells. Animals were randomized when tumor volume reached approximately 100-150 mm^3. Animals were treated with vehicle (0.5% methycellulose, 1% Tween 80 P.O. and saline I.V.), Compound of formula (I) formulated as a suspension in 0.5% methycellulose and 1% Tween 80 (30 mg/kg QD, P.O.), Carboplatin (50 mg/kg QW, I.V.) or etoposide (25 mg/kg or 12.5 mg/kg QW, I.P.), administered over a 21 day cycle, either alone or in combination (8 animals per group in double combination studies; 10 animals per group in triple combination study). In combination arms, Compound of formula (I) was administered 2 hours prior to chemotherapy. Tumor growth was monitored twice weekly by caliper measurement and tumor volume calculated using the equation V=(L×W×W)/2, where V is tumor volume, L is tumor length (the longest tumor dimension) and W is tumor width (the longest tumor dimension perpendicular to L). During routine monitoring, the animals were checked for any effects of tumor growth and treatments on behavior such as mobility, food and water consumption, body weight gain/loss 3 times a week, eye/hair matting and any other abnormalities. Mortality and observed clinical signs were recorded for individual animals.

The nature of series [3]: NCI-H1048 CDX model, tolerability (body weight). Format: in vivo. As to the method: as §2
Series [4] is described as follows: NCI-H446 CDX model, tolerability (body weight). Format: in vivo. As to conditions: in combination with carboplatin 50 mg/kg QW I.V.; 16 day cycle. The procedure: as §1
Another series concerns SC6 PDX tumors. The series can be described thus: SC6 patient derived xenograft (PDX) model, tumor growth inhibition. The series is classed as in vivo, athymic nude mice. Conditions: for tumor growth inhibition (TGI): 30 mg/kg QD P.O. in combination with etoposide 6 mg/kg QD [3 d on/4 d off] I.P., compared to vehicle control. As to the method: (§3) Female athymic nude mice were inoculated subcutaneously with tumor fragments from SC6 PDX tumors. Animals were randomized when tumor volume reached approximately 60-200 mm^3. Animals were treated with vehicle (0.5% methycellulose, 1% Tween 80 P.O. and saline I.V.), Compound of formula (I) formulated as a suspension in 0.5% methycellulose and 1% Tween 80 (30 mg/kg QD, P.O.), Carboplatin (25 mg/kg QW, I.P.) or etoposide (6 mg/kg QD [3 d on/4 d off], I.P.), administered over a 21 day cycle either alone or in combination (7 animals per group). In combination arms, Compound of formula (I) was administered 2 hours prior to chemotherapy. Tumor growth was monitored twice weekly by caliper measurement and tumor volume calculated using the equation V=(L×W×W)/2, where V is tumor volume, L is tumor length (the longest tumor dimension) and W is tumor width (the longest tumor dimension perpendicular to L). During routine monitoring, the animals were checked for any effects of tumor growth and treatments on behavior such as mobility, food and water consumption, body weight gain/loss 3 times a week, eye/hair matting and any other abnormalities. Mortality and observed clinical signs were recorded for individual animals.
In general terms: In xenograft studies the graft and the host belong to different species.

Series [5] is described as follows: SC6 PDX model, tolerability (body weight). Conditions: in combination with etoposide. Format: in vivo. The procedure:
as §3

The subject of another series is SCLC organoids. The series is described as follows: SCLC organoid models, Cell Titer Glow 3D viability and Bliss synergy. Format: cell-based. Conditions: for bliss synergy score: vs carboplatin/etoposide (5:1 ratio) as a single treatment. As to the method: SCLC organoids from 16 models were prepared as follows: SCLC organoid models were expanded in 6-well plates, each well containing 2 ml of organoid medium. On the day of organoid seeding 20 μL 100× Dispase solution was added to each well and the plates were incubated at 37° C. for 30 min. Organoids were passed through a pre-wet 100 μm filter into a 50 ml plastic tube and subsequently further filtered through a wet 20 μm filter. Organoids were resuspended in culture media and counted. Matrigel was added to a final concentration of 5% v/v and 40 μL of cell suspensions add to each well of a 384-well plate by Multidrop dispenser.
The treatments tested for each organoid model were as follows: • (a) Compound of Formula (I) in monotherapy, • (b) carboplatin and etoposide (in a 5:1 ratio, considered as a single treatment), or • (c) Compound of Formula (I) in combination with carboplatin and etoposide, using the following concentrations in a matrix format: compound of Formula (I) in 6 concentrations from 0.047 to 1.5 μM, carboplatin in 6 concentrations from 0.156 to 5 μM, and etoposide in 6 concentrations from 0.031 to 1 μM)). Thus, for the carboplatin and etoposide treatment (considered as a single treatment in this experiment), the lowest concentration of carboplatin was combined with the lowest concentration of etoposide in a 5:1 ratio, the 2nd lowest doses of both reagents were combined, etc., while maintaining the 5:1 ratio. Then, each of these combinations were used either alone (carboplatin/etoposide treatment) or in further combination with each concentration of Compound of Formula (I).
The screening plates were incubated with treatments for 5 days. All treatments were performed in technical triplicates and biological replicates.
Plates were assayed for luminescent Cell Titer Glow (CTG) signal by adding 40 μL of CTG 3D per well by Multidrop dispenser, mixing for 5 mins and incubating for 30 min at room temperature in the dark. Luminescence signal was then measured on Envision plate reader.
The surviving and inhibition rates were calculated as follows for each treatment: […]
For synergy calculations and creation of heatmaps, the Bliss independence model was used on synergyfinder.org (Zheng, S.; Wang, W.; Aldahdooh, J.; Malyutina, A.; Shadbahr, T.; Tanoli Z; Pessia, A.; Jing, T. SynergyFinder Plus: Toward Better Interpretation and Annotation of Drug Combination Screening Datasets. Genomics, Proteomics & Bioinformatics 2022, in press. doi:10.1016/j.gpb.2022.01.004) considering carboplatin/etoposide as a single treatment vs Compound of Formula (I). 9 out of 16 models had bliss synergy scores >5 between Compound of Formula (I) and the carboplatin/etoposide treatment. […]

Where [6] appears, read: triple combination with carboplatin and etoposide.

SMILES strings stand for the structures. pIC50: −log10 of the molar value. Where only a bound is given, the exact number is not on record here.

In the case of `N.N.O=C([O-])C1(C(=O)[O-])CCC1.[Pt+2]` [carboplatin, reference compound], the “TGI effects compared to vehicle” value in [1] is listed as “no significant TGI effects”.
With `C=CCn1c(=O)c2cnc(Nc3ccc(N4CCN(C)CC4)cc3)nc2n1-c1cccc(C(C)(C)O)n1` [adavosertib], in the series on SCLC, the antitumor activity entry is given as “limited antitumor activity”.
As to `Cc1cc(Nc2ncc3c(n2)N(C)CN(c2c(Cl)cccc2Cl)C3=O)ccc1C1CCN(C)CC1` [Compound of formula (I)], in the series with NCI-H446 tumor cells, the “synergistic antitumor activity (Bliss synergy)” value was “strong synergistic antitumor activity”. For the same compound, the “tumor growth inhibition (TGI)” value in series [2] (30 mg/kg QD P.O. in combination with carboplatin 50 mg/kg QW I.V., 21 day cycle, vs vehicle controls, p=0.0026) was “about 68%”; in series [2] (30 mg/kg QD P.O. in combination with etoposide (25 mg/kg or 12.5 mg/kg QW I.P.), 21 day cycle, vs vehicle controls, p=0.00015), roughly 78%; in [2] (monotherapy 30 mg/kg QD P.O., 21 day cycle, vs vehicle, p=0.016) it was “up to 54%”; in [2] (triple combination with carboplatin (50 mg/kg) and etoposide (12.5 mg/kg), compared to carboplatin and etoposide combination, p=0.0043), 44%; in series [2] (triple combination with carboplatin (50 mg/kg) and etoposide (12.5 mg/kg), compared to vehicle controls, p<0.0001) it was 72%; in [1] (30 mg/kg QD 3 consecutive days a week P.O. in combination with carboplatin 50 mg/kg QW I.V., compared to vehicle, p=0.028), 67%. The “tumor growth inhibition (TGI)” value is on record as 34% with SC6 PDX tumors (day 7) and 61% with SC6 PDX tumors (day 11, p=0.012). Besides, in series [2] (triple combination with carboplatin and etoposide, compared to carboplatin and etoposide treatments alone or to the double combination), the tumor response entry was “significantly improved tumor response”. Moreover, the body weight loss entry was “No significant body weight loss” in series [3] (in combination with carboplatin 50 mg/kg QW I.V.); “No significant body weight loss” in series [3] (in combination with etoposide QW I.P.); “No significant body weight loss” in [3] (monotherapy 30 mg/kg QD P.O., 21 day cycle); “No significant body weight loss” in [3] (setting [6]); “No significant body weight loss” in series [4]; “some transient body weight losses” in series [5] (immediately following treatment, all animals recovered quickly). Further, the tolerability entry in [3] (setting [6]) and in series [5] was “well tolerated” throughout. Further, the “TGI effects compared to vehicle” value in series [1] is “no significant TGI effects”. The “mice remaining below the maximum tumor volume ethical criteria at end of treatment” value in the series on SC6 PDX tumors (in combination with etoposide, end of treatment (21 days), 7 animals per group) is on record as 4/7. In addition, the negative-log IC50 (pIC50) with SCLC organoids (120 h, monotherapy, 5 days, in 12 out of 16 SCLC organoids) was greater than 5.82. Moreover, the inhibition at 1.5 µM in the series with SCLC organoids (monotherapy, at 1.5 uM (highest dose tested), in 12 out of 16 SCLC organoids, read-out: maximum inhibition rate (cell death rate)) is greater than 60%. Also, the bliss synergy score is on record as greater than 10 in the series on SCLC organoids (5 days, in 5 of these models (FIG. 8), highly significant) and greater than 5 with SCLC organoids (5 days, in 9 out of 16 SCLC organoid models).

The term pIC50 denotes the IC50 on a negative log10 scale, so that one unit is a factor of ten. In general, inhibition refers to the relative decrease from the control value, in per cent.

The values above are taken from patent publication US20260027117A1, “METHODS OF TREATING SMALL CELL LUNG CANCER” (Debiopharm International S.A., priority 2022, published 2026).
